Data from patent US8232289B2, “Spiropiperidine compounds as ORL-1 receptor antagonists” (Eli Lilly and Company, priority 2009, dated 2012).
Like-named read-outs stand apart in the source and are kept apart here. Marks after values point to notes of the source that are not given here. Each block holds one molecule with its values, some of them ahead of it.

Legend:
5-HT2A = 5-HT2A (Homo sapiens, UniProt P28223); experiment: Radioligand binding selectivity, 5-HT2A
Source text: (§1) Similarly, Ki for the mu, kappa and delta opioids, serotonin, dopamine, adrenergic, mucarinic, and histamine receptors, as well as binding to the norepinephrine transporter, sodium channel, chloride channel, and calcium channel may be determined using membranes expressing the desired receptor/transporter/channels and appropriate corresponding radioligand competitor molecules.

Ca+2 channel (DHP site) = experiment: Radioligand binding selectivity, Ca+2 channel (DHP site)
Source text: as §1

5-HT5 = 5-HT5 (Homo sapiens, UniProt P47898); experiment: Radioligand binding selectivity, 5-HT5
Source text: as §1

[1] = target: T1, cloned human ORL1/nociceptin receptors (Homo sapiens, UniProt P41146); experiment: Functional blockade of agonist-mediated G-protein activation, GTP-γ-[35S] binding; type: biochemical
T1 construct: expressed in transfected cells
Source text: Agonist-mediated stimulation of G-protein coupled receptors results in the activation of membrane associated Gαβγ-protein heterotrimer complexes, and represents the first step in the transduction of extracellular signals to modification of intracellular pathways. The first step in activation of receptor-mediated activation of Gαβγ-proteins heterotrimer is the exchange of Gα subunit bound guanosine diphoshpate (GDP) for guanosine triphosphate (GTP). The binding of GTP to the Gα subunit causes dissociation of the heterotrimer subunits, Gβ and Gγ, resulting in the modulation of several intracellular signaling cascades. Measurement of receptor-mediated G-protein activation can be measured using the non-hydrolyzable radiolabeled analog of GTP, GTP-γ-[35S]. Utilizing this methodology, antagonist affinity (Kb) is measured in membranes expressing cloned human ORL1/nociceptin receptors using a GTP-γ-[35S] binding assay according to previously described protocols with minor modifications (DeLapp et al., J Pharmacol Exp Ther. 1999 May; 289(2):946-55; Ozaki et al., Eur J Pharmacol. 2000 Aug. 18; 402(1-2):45-53). Assays are conducted in a 200-μl volume with the following buffer composition: 100 mM NaCl, 20 mM HEPES, 5 mM MgCl2, 1 mM EDTA, 0.1% BSA, 3 μM GDP, 0.5 nM [^35S]GTPγS. ORL1 receptor membrane suspension is added at a concentration of 20 μg protein per well and receptor stimulation is achieved using 300 nM nociceptin/OFQ. Wheat germ agglutinin coated SPA beads (Amersham, Arlington Hts., IL) are added at 1 mg per well to detect membrane-bound [^35S]GTPγS. Plates are sealed and incubated for 2 hr. at room temperature. Plates are then placed at 4° C. overnight to allow the SPA beads to settle and then counted in a Wallac Microbeta. Specific [^35S]GTPγS binding is determined as the difference in CPM observed in the absence and presence of 10 μM unlabeled GTPγS. Data are plotted as the percent of specific [^35S]GTPγS bound. Curves are plotted as the percent of specific binding and IC50 values are determined using a sigmoidal dose response curve with variable slope. […]

human ORL1 receptors = target: T2, human ORL1 receptors (Homo sapiens, UniProt P41146); experiment: [3H]-OFQ/nociceptin receptor binding assay
T2 construct: expressed in transfected cells; host or cells: CHO cells (membranes)
Method: Radioligand binding assays are commonly used to determine the affinity (Ki) or potency of a compound to bind to a particular receptor or target protein. A filtration-based [3H]-OFQ/nociceptin receptor binding assay is developed based on previous assay formats (Ardati A, Henningsen R A, Higelin J, Reinscheid R K, Civelli O, Monsma F J Jr. Mol. Pharmacol. 1997 May; 51(5):816-24.) with minor modifications. [3H]-OFQ/nociceptin binding assays are carried out in deep-well 96-well plates. [^3H]OFQ (final assay concentration 0.2 nM) competition studies are carried out with 5-10 μg of membrane protein (isolated from Chinese hamster ovary cells (CHO cells) expressing cloned human ORL1 receptors) in a final assay volume of 0.5 mL of buffer containing 20 mM HEPES, pH 7.4, 5 mM MgCl2, 1 mM EGTA, 100 mM NaCl, 0.1% bovine serum albumin. Samples are incubated for 60 min. at room temperature, which is found to be optimal for competition assays. The assays are terminated by filtration through glass fiber filters (Wallac filtermat A) [pretreated with 0.3% polyethylenimine (Sigma) for 1 hr] on a Tometc cell harvester, and the filters are washed three times with 5 mL of ice-cold 50 mM Tris.HCl, pH 7.4. Filtermats are then dried and imbedded with Meltilex scintillant A and the radioactivity counted in a Wallac Microbeta scintillation counter. Specific binding is determined by displacement with 100 nM unlabeled nociceptin. Curves are plotted as the percent of specific binding and IC50 values are determined using a sigmoidal dose response curve with variable slope. Ki values are calculated from the IC50 by the equation of Cheng and Prusoff (Cheng, Y. C., and Prusoff, W. H., Biochem. Pharmacol. 22, 3099-3108 (1973)) where Ki=IC50×(1+D×Kd^−1)^−1.

Adrenergic Alpha2 = experiment: Radioligand binding selectivity, Adrenergic Alpha2
Source text: as §1

5-HT7 = 5-HT7 (Homo sapiens, UniProt P34969); experiment: Radioligand binding selectivity, 5-HT7
Source text: as §1

Kappa Opioid = Kappa Opioid (Homo sapiens, UniProt P41145); experiment: Radioligand binding selectivity, Kappa Opioid
Source text: as §1

D1 Dopamine = D1 Dopamine (Homo sapiens, UniProt P21728); experiment: Radioligand binding selectivity, D1 Dopamine
Source text: as §1

5-HT1B = 5-HT1B (Homo sapiens, UniProt P28222); experiment: Radioligand binding selectivity, 5-HT1B
Source text: as §1

male NIH-Swiss mice = experiment: Forced-swim test in mice (mFST); type: in vivo; details: for ED60 in mFST: immobilization time; for maximum effect, reduction in immobilization time: mouse, in vivo
Source text: mFST is an established in vivo assay for antidepressant activity (Li et al. J Pharmacol Exp Ther. 319(1):254-9, 2006.). […] The mFST was used to evaluate potential antidepressant-like activity of novel nociceptin/ORL1 antagonists according to previously published methods (Li et al. J Pharmacol Exp Ther. 319(1):254-9, 2006.). Briefly, male NIH-Swiss mice (Harlan Sprague-Dawley, Indianapolis, Ind.) weighing between 25-30 g are used. Group housed animals are removed from the vivarium to the testing area in their own cages and allowed to adapt to the new environment for at least 1 hour before testing. Alternatively, male 129S6 wild type and nociceptin/ORL1 receptor knockout mice were used to confirm dependence of the response to compound was nociceptin/ORL1 receptor dependent. All compounds are prepared in 20% Captisol, 25 mM phosphate buffer, pH 2.0 on the day of use. Mice are placed in a cylinder (diameter: 10 cm; height: 25 cm) filled with 6 cm of water (22-25° C.) for 6 min. The duration of immobility during the last 4 min. of the 6 min. period of the test was scored. A mouse is recorded as immobile when floating motionless or making only those movements necessary to keep its head above water.

Kappa Opioid, sequence (P41145 whole entry): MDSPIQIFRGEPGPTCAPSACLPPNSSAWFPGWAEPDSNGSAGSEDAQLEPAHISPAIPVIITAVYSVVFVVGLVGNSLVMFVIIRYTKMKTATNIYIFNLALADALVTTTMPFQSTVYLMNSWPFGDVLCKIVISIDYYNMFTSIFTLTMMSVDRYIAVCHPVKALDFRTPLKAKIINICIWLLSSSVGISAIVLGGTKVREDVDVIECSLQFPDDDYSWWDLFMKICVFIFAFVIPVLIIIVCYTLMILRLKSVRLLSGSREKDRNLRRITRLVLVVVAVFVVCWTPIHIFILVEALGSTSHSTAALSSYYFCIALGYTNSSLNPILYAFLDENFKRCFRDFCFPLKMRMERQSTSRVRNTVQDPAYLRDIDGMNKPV
T2 sequence (P41146 whole entry): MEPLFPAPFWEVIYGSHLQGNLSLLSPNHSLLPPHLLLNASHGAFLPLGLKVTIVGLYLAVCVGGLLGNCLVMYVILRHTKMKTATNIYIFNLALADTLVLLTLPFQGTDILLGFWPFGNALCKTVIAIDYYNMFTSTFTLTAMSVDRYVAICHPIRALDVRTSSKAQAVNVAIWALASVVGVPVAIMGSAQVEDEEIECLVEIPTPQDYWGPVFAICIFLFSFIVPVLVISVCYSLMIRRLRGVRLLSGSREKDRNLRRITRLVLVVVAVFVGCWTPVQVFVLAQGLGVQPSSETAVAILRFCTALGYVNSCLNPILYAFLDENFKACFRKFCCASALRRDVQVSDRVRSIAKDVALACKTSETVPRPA
5-HT1B, sequence (P28222 whole entry, species assumed): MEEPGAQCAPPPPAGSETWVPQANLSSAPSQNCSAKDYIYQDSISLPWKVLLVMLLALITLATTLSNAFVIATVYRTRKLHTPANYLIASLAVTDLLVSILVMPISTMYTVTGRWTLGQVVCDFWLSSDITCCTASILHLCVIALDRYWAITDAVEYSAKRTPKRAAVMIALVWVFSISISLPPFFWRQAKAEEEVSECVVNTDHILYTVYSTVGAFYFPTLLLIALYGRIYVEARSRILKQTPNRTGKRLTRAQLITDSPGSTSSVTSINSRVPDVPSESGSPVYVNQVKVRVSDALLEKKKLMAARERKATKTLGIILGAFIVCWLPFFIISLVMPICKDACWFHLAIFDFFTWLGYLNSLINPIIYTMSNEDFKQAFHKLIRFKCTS
T1 sequence (P41146 whole entry): as the sequence (P41146 whole entry) above
5-HT5, sequence (P47898 whole entry): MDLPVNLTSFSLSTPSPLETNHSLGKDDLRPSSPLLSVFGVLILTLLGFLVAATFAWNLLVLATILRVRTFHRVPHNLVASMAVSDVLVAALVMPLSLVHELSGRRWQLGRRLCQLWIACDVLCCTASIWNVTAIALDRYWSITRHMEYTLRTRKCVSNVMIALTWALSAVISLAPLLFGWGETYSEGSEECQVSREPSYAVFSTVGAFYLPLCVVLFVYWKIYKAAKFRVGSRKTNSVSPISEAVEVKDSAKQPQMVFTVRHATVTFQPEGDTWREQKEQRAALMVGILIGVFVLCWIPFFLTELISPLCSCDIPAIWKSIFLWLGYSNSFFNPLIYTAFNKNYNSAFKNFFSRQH
5-HT2A, sequence (P28223 whole entry, species assumed): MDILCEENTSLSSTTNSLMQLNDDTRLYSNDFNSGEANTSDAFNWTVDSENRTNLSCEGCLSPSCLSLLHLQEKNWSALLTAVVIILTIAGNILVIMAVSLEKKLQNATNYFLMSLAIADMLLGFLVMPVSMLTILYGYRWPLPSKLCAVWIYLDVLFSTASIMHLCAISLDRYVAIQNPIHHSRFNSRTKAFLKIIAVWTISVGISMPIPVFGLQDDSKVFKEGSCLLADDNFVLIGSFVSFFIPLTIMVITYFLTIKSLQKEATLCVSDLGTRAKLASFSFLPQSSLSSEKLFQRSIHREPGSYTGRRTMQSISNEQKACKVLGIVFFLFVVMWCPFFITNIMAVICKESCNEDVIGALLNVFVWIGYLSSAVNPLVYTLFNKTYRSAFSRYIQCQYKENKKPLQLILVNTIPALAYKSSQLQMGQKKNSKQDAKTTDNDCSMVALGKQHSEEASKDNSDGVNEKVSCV
5-HT7, sequence (P34969 whole entry, species assumed): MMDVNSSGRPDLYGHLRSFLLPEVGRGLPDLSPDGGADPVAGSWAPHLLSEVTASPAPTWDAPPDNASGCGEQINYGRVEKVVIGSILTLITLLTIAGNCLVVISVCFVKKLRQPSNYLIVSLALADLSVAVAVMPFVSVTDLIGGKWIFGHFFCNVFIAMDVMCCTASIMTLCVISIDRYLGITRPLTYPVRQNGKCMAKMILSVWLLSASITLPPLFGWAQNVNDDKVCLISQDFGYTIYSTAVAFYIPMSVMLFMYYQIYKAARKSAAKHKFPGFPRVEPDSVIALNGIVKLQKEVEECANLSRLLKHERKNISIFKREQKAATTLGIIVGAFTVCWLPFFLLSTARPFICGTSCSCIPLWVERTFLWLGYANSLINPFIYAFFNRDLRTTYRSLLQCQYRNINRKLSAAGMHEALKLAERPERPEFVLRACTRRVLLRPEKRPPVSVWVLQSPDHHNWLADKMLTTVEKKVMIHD
D1 Dopamine, sequence (P21728 whole entry): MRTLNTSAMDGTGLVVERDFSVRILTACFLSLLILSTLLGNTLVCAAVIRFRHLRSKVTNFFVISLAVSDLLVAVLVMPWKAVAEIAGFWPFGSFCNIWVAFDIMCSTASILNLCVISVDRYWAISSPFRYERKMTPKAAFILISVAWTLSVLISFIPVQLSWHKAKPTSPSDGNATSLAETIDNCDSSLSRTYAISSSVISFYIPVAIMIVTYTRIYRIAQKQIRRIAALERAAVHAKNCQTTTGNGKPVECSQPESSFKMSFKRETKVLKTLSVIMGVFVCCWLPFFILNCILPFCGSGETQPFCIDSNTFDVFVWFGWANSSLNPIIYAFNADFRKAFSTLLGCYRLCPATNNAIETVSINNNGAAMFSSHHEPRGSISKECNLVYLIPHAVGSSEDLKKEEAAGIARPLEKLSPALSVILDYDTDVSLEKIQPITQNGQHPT

Compound: O=C(O)C(O)C(O)C(=O)O.OCc1nn(-c2ncccc2F)cc1CN1CCC2(CC1)OCC(F)(F)c1cc(Cl)sc12 [Example 53, [4-[(2-Chloro-4,4-difluoro-spiro[5H-thieno[2,3-c]pyran-7,4′-piperidine]-1′-yl)methyl]-1-(3-fluoro-2-pyridyl)pyrazol-3-yl]methanol (L)-Tartrate]
Ki (5-HT2A): > 5 µM
Ki (Ca+2 channel (DHP site)): > 5 µM
Ki (5-HT5): > 9.09 µM
Kb [1]: 0.00062 µM
Ki (human ORL1 receptors): 0.00045 µM
Ki (Adrenergic Alpha2): > 5 µM
Ki (5-HT7): > 3.98 µM
Ki (Kappa Opioid): > 0.43 µM
Ki (D1 Dopamine): > 5 µM
Ki (5-HT1B): > 3.58 µM
ED60 in mFST (male NIH-Swiss mice): 12.9 mg/kg
maximum effect, reduction in immobilization time (male NIH-Swiss mice): 54%

Ki (5-HT2A; read-out: Ki 5-HT2A): > 5 µM
Ki (Ca+2 channel (DHP site)): > 5 µM
Ki (5-HT5; read-out: Ki 5-HT5): > 9.09 µM
Ki (human ORL1 receptors; [3H]OFQ 0.2 nM, CHO cell membranes, read-out: Ki ORL-1): 0.00018 µM
Ki (Adrenergic Alpha2): > 5 µM
Ki (5-HT7; read-out: Ki 5-HT7): > 3.98 µM
Ki (Kappa Opioid; read-out: Ki Kappa Opioid): > 0.43 µM
Ki (D1 Dopamine; read-out: Ki D1 Dopamine): > 5 µM
Ki (5-HT1B; read-out: Ki 5-HT1B): > 3.58 µM
Compound: Cc1nn(-c2ncccc2CO)cc1CN1CCC2(CC1)OCC(F)(F)c1cc(Cl)sc12 [Example 62, [2-[4-[(2-Chloro-4,4-difluoro-spiro[5H-thieno[2,3-c]pyran-7,4′-piperidine]-1′-yl)methyl]-3-methyl-pyrazol-1-yl]-3-pyridyl]methanol]
Immobilization Time (male NIH-Swiss mice; 3 mg/Kg Ex. 62 + 10 mg/Kg fluoxetine): 97* sec
Immobilization Time (male NIH-Swiss mice; 3 mg/Kg, alone): 163 s
Immobilization Time (male NIH-Swiss mice; 10 mg/Kg Ex. 62 + 10 mg/Kg fluoxetine): 85* sec
Immobilization Time (male NIH-Swiss mice; 10 mg/Kg, alone): 129 s
ED60 in mFST (male NIH-Swiss mice): 24.9 mg/kg
effect on immobilization time in combination with fluoxetine (male NIH-Swiss mice; in combination with 10 mg/kg fluoxetine): significantly further reduce immobilization time over either fluoxetine or the compound of Example 62 alone
maximum effect, reduction in immobilization time (male NIH-Swiss mice): 45%

Compound: Cc1nn(-c2ncccc2Cn2cccn2)cc1CN1CCC2(CC1)OCC(F)(F)c1cc(Cl)sc12.O=C(O)C(O)C(O)C(=O)O [Example 23, 2-Chloro-4,4-difluoro-1′-[[3-methyl-1-[3-(pyrazol-1-ylmethyl)-2-pyridyl]pyrazol-4-yl]methyl]spiro[5H-thieno[2,3-c]pyran-7,4′-piperidine] (L)-Tartrate]
Kb [1]: 0.00152 µM
Ki (human ORL1 receptors): 0.00079 µM
Ki (Kappa Opioid): > 0.43 µM
ED60 in mFST (male NIH-Swiss mice): 9.5 mg/kg
maximum effect, reduction in immobilization time (male NIH-Swiss mice): 58%
